# According to paper PMC7531004, “Discovery of gramicidin A analogues with altered activities by multidimensional screening of a one-bead-one-compound library” (Nature Communications, 2020):
# Where a SMILES comes first, the peptide text is derived from it. [ ]: non-standard residue; d: D form. The star is where a group is joined. NHCH2CH2OH = OCCN*; For = O=C*
# How the values were obtained:
# [1] = cell viability/%
# Outline: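 Peptide stocks diluted 250× in growth medium; P388 cells 1 × 10^4 cells/mL final; 37 °C, 5% CO2, 92 h. WST-1 + 1-methoxy PMS, 4 h, A415. Output: % viability.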
# [2] = test system: Streptococcus pyogenes SSI-9; experiment: Antibacterial activity assay of bead-derived peptides (three concentrations); assay type: cell-based; set-up: key: +++: inhibition by the 640-fold diluted peptide solution; ++: inhibition by the 160-fold diluted solution; +: inhibition by the 40-fold diluted solution; -: no inhibition; settings: S. pyogenes, bead-derived peptide solution, three concentrations
# Outline: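 Growth inhibition scored visually as precipitated bacteria after 37 °C, 18 h incubation. Streptococcus pyogenes SSI-9 inoculum of 2 × 10^5 CFU in Ca2+/Mg2+-adjusted Mueller Hinton broth plus 5% laked horse blood; peptides tested at three levels: stock, 4-fold and 16-fold DMSO dilutions.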
# [3] = H+/Na+ transport assay of bead-derived peptides (one-point); assay type: biochemical; set-up: key: relative activity; mean of two control wells = 1.00; settings: bead-derived peptide solution, EYPC/EYPG LUVs;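 further: relative to parent gramicidin A activity set to 1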
# Outline: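 H+/Na+ transport is monitored through pyranine fluorescence in freshly extruded LUVs after a 30-min room-temperature vortex with each library peptide at a single concentration. Signals are normalized to detergent (Triton X-100) and untreated controls.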
SMILES,viability [1] [%],antibacterial activity [2],H+/Na+ transport activity normalized against the value of 1 (1.00) [3]
CC(C)C[C@@H](NC(=O)[C@H](C)NC(=O)[C@H](NC(=O)[C@H](C)NC(=O)CNC(=O)[C@@H](NC=O)C(C)C)C(C)C)C(=O)N[C@H](C(=O)N[C@@H](C(=O)N[C@@H](Cc1c[nH]c2ccccc12)C(=O)N[C@@H](C(=O)N[C@@H](Cc1c[nH]c2ccccc12)C(=O)N[C@@H](C(=O)N[C@@H](Cc1c[nH]c2ccccc12)C(=O)N[C@H](CC(C)C)C(=O)N[C@@H](Cc1c[nH]c2ccccc12)C(=O)NCCO)C(C)C)[C@H](C)O)C(C)C)C(C)C [compound 12865] (For-VGA[dV]A[dL]V[dV]W[dT]W[dV]W[dL]W-NHCH2CH2OH),91.7,-,1.10
CC(C)C[C@@H](NC(=O)[C@H](C)NC(=O)[C@H](NC(=O)[C@H](C)NC(=O)CNC(=O)[C@@H](NC=O)C(C)C)[C@H](C)O)C(=O)N[C@H](C(=O)N[C@H](CC(C)C)C(=O)N[C@@H](Cc1c[nH]c2ccccc12)C(=O)N[C@@H](C(=O)N[C@@H](Cc1c[nH]c2ccccc12)C(=O)N[C@H](CC(C)C)C(=O)N[C@@H](Cc1c[nH]c2ccccc12)C(=O)N[C@@H](C(=O)N[C@@H](Cc1c[nH]c2ccccc12)C(=O)NCCO)[C@H](C)O)C(C)C)C(C)C [compound 3130] (For-VGA[dT]A[dL]V[dL]W[dV]W[dL]W[dT]W-NHCH2CH2OH),100,-,1.05
CNC(=O)C[C@@H](NC(=O)[C@@H](NC(=O)[C@@H](CC(C)C)NC(=O)[C@H](C)NC(=O)[C@H](NC(=O)[C@H](C)NC(=O)CNC(=O)[C@@H](NC=O)C(C)C)C(C)C)C(C)C)C(=O)N[C@@H](Cc1c[nH]c2ccccc12)C(=O)N[C@H](CC(C)C)C(=O)N[C@@H](Cc1c[nH]c2ccccc12)C(=O)N[C@H](CC(C)C)C(=O)N[C@@H](Cc1c[nH]c2ccccc12)C(=O)N[C@H](CC(C)C)C(=O)N[C@@H](Cc1c[nH]c2ccccc12)C(=O)NCCO [compound 1242] (For-VGA[dV]A[dL]V[dD](NHMe)W[dL]W[dL]W[dL]W-NHCH2CH2OH),65.8,-,1.13
CC(C)C[C@@H](NC(=O)[C@H](C)NC(=O)CNC(=O)[C@@H](NC=O)C(C)C)C(=O)N[C@@H](C)C(=O)N[C@@H](C(=O)N[C@H](C(=O)N[C@H](CC(C)C)C(=O)N[C@@H](Cc1c[nH]c2ccccc12)C(=O)N[C@H](CC(C)C)C(=O)N[C@@H](Cc1c[nH]c2ccccc12)C(=O)N[C@@H](C(=O)N[C@@H](Cc1c[nH]c2ccccc12)C(=O)N[C@@H](C(=O)N[C@@H](Cc1c[nH]c2ccccc12)C(=O)NCCO)[C@H](C)O)C(C)C)C(C)C)[C@H](C)O [compound 113] (For-VGA[dL]A[dT]V[dL]W[dL]W[dV]W[dT]W-NHCH2CH2OH),100,-,1.00
CC(C)C[C@@H](NC(=O)[C@H](C)NC(=O)[C@H](NC(=O)[C@H](C)NC(=O)CNC(=O)[C@@H](NC=O)C(C)C)C(C)C)C(=O)N[C@H](C(=O)N[C@H](CC(C)C)C(=O)N[C@@H](Cc1c[nH]c2ccccc12)C(=O)N[C@H](CC(C)C)C(=O)N[C@@H](Cc1c[nH]c2ccccc12)C(=O)N[C@@H](C(=O)N[C@@H](Cc1c[nH]c2ccccc12)C(=O)N[C@H](CC(C)C)C(=O)N[C@@H](Cc1c[nH]c2ccccc12)C(=O)NCCO)[C@H](C)O)C(C)C [compound 2682] (For-VGA[dV]A[dL]V[dL]W[dL]W[dT]W[dL]W-NHCH2CH2OH),100,+,1.06
CC(C)C[C@@H](NC(=O)[C@H](C)NC(=O)CNC(=O)[C@@H](NC=O)C(C)C)C(=O)N[C@@H](C)C(=O)N[C@@H](C(=O)N[C@H](C(=O)N[C@@H](C(=O)N[C@@H](Cc1c[nH]c2ccccc12)C(=O)N[C@H](CC(C)C)C(=O)N[C@@H](Cc1c[nH]c2ccccc12)C(=O)N[C@@H](C(=O)N[C@@H](Cc1c[nH]c2ccccc12)C(=O)N[C@@H](C(=O)N[C@@H](Cc1c[nH]c2ccccc12)C(=O)NCCO)C(C)C)C(C)C)C(C)C)C(C)C)C(C)C [compound 5587] (For-VGA[dL]A[dV]V[dV]W[dL]W[dV]W[dV]W-NHCH2CH2OH),85.3,++,1.23
CNC(=O)C[C@@H](NC(=O)[C@@H](NC(=O)[C@@H](CC(C)C)NC(=O)[C@H](C)NC(=O)[C@@H](CC(C)C)NC(=O)[C@H](C)NC(=O)CNC(=O)[C@@H](NC=O)C(C)C)C(C)C)C(=O)N[C@@H](Cc1c[nH]c2ccccc12)C(=O)N[C@H](CC(C)C)C(=O)N[C@@H](Cc1c[nH]c2ccccc12)C(=O)N[C@H](CC(C)C)C(=O)N[C@@H](Cc1c[nH]c2ccccc12)C(=O)N[C@@H](C(=O)N[C@@H](Cc1c[nH]c2ccccc12)C(=O)NCCO)C(C)C [compound 4186] (For-VGA[dL]A[dL]V[dD](NHMe)W[dL]W[dL]W[dV]W-NHCH2CH2OH),98.7,-,1.44
CNC(=O)C[C@@H](NC(=O)[C@H](Cc1c[nH]c2ccccc12)NC(=O)[C@H](NC(=O)[C@H](Cc1c[nH]c2ccccc12)NC(=O)[C@@H](CC(C)C)NC(=O)[C@H](Cc1c[nH]c2ccccc12)NC(=O)[C@H](NC(=O)[C@@H](NC(=O)[C@H](NC(=O)[C@H](C)NC(=O)[C@@H](CC(C)C)NC(=O)[C@H](C)NC(=O)CNC(=O)[C@@H](NC=O)C(C)C)C(C)C)C(C)C)C(C)C)C(C)C)C(=O)N[C@@H](Cc1c[nH]c2ccccc12)C(=O)NCCO [compound 3499] (For-VGA[dL]A[dV]V[dV]W[dL]W[dV]W[dD](NHMe)W-NHCH2CH2OH),100,+,1.01
CC(C)C[C@@H](NC(=O)[C@H](Cc1c[nH]c2ccccc12)NC(=O)[C@H](NC(=O)[C@@H](NC(=O)[C@H](NC(=O)[C@H](C)NC(=O)[C@H](NC(=O)[C@H](C)NC(=O)CNC(=O)[C@@H](NC=O)C(C)C)C(C)C)C(C)C)C(C)C)C(C)C)C(=O)N[C@@H](Cc1c[nH]c2ccccc12)C(=O)N[C@H](CC(C)C)C(=O)N[C@@H](Cc1c[nH]c2ccccc12)C(=O)N[C@@H](C(=O)N[C@@H](Cc1c[nH]c2ccccc12)C(=O)NCCO)C(C)C [compound 5742] (For-VGA[dV]A[dV]V[dV]W[dL]W[dL]W[dV]W-NHCH2CH2OH),11.1,++,1.16
CC(C)C[C@@H](NC(=O)[C@H](C)NC(=O)CNC(=O)[C@@H](NC=O)C(C)C)C(=O)N[C@@H](C)C(=O)N[C@H](CC(C)C)C(=O)N[C@H](C(=O)N[C@H](CC(C)C)C(=O)N[C@@H](Cc1c[nH]c2ccccc12)C(=O)N[C@@H](C(=O)N[C@@H](Cc1c[nH]c2ccccc12)C(=O)N[C@H](CC(C)C)C(=O)N[C@@H](Cc1c[nH]c2ccccc12)C(=O)N[C@@H](C(=O)N[C@@H](Cc1c[nH]c2ccccc12)C(=O)NCCO)C(C)C)[C@H](C)O)C(C)C [compound 5561] (For-VGA[dL]A[dL]V[dL]W[dT]W[dL]W[dV]W-NHCH2CH2OH),100,-,1.05
